Source: PMC11031295 (ChemMedChem, 2024)
Entries after “also recorded” stand apart in the source; their conditions may differ.

Assays:
[1] = target: T1, ERCC1/XPA protein-protein interaction (MBP-ERCC1 central domain / fluorescein-labeled XPA67-80 peptide) (Homo sapiens, UniProt P07992); assay: Fluorescence polarization; format: binding
T1 sequence (P07992 96-214): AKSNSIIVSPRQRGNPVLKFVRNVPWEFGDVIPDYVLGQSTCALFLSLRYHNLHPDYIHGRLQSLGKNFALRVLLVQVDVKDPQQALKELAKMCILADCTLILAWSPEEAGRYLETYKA

[2] = target: T2, 15N-labeled human ERCC1 fragment containing residues 96-214 (Homo sapiens, UniProt P07992); assay: Backbone chemical shift perturbation mapping by NMR; format: binding; conditions: 0.25 mM ERCC1, titration with compound 1, pH 7.5, 28 °C
T2 sequence (P07992 96-214): T1 sequence (P07992 96-214)

[3] = system: ERCC1; conditions: binding pocket on ERCC1; cited from earlier work

Molecule	EC50 [1]	binding site on ERCC1 (in words) [2]	binding affinity to ERCC1 (in words) [3]
Cc1cc(C)c(C#N)c(SCC(O)c2cccc([N+](=O)[O-])c2)n1 (stereo not drawn) [Compound 1, 2-[2-hydroxy-2-(3-nitrophenyl)ethyl]sulfanyl-4,6-dimethyl-pyridine-3-carbonitrile]	21 µM	binds within the same site as the truncated XPA67-80 peptide; also recorded: binds to the same site as the truncated XPA 14-mer; also recorded: binds to the same central domain of ERCC1 as truncated XPA peptides	–
14-mer peptide corresponding to residues 67-80 of XPA: truncated 14-mer peptide corresponding to residues 67-80 of XPA (KIIDTGGGFILEEE; UniProt P23025 67-80, looked up, fragment)	–	–	sub-micromolar affinity
